Data on 3 compounds can be found in US20030104007A1, “Pseudopterosin compounds of Symbiodinium spp isolated from Pseudopterogorgia elisabethae” (priority 2001, published 2003).

The IC50 is the midpoint of a concentration-inhibition curve.

SMILES strings stand for the structures.

The test system of assay [1] is PMA-induced mouse ear edema. Nature of the assay: Inhibition of PMA-induced inflammation (edema) of the mouse ear. To be noted: administered topically. It is filed as in vivo. As for the experimental part: A test compound is topically applied in acetone to the inside pinnae of the ears of mice in a solution containing the edema-causing irritant, phorbol 12-myristate 13-acetate (PMA). PMA alone (2 μg/ear) or in combination with the test compound is applied to left ears (5 mice per treatment group) and acetone is applied to all right ears. After 3 hour 20 minute incubation, the mice are euthanized, the ears are removed, and bores are taken and weighed. Edema is measured by subtracting the weight of the right ear (acetone control) from the weight of the left ear (treated). Results are recorded as % decreases (inhibition) or % increase (potentiation) in edema relative to the PMA control group edema. Test compounds are screened at 50 or 25 μg/ear.
This signaling mechanism may be coupled to phagosome formation. The endogenous production of eicosanoids and their role in phagosome formation may be evaluated by using […] as pharmacological probes and analyzing arachidonic acid products by conventional means.

Assay [2] has as its system prostaglandin E2 production in zymosan-stimulated murine peritoneal macrophages. The assay is described as follows: Prostaglandin E2 production in zymosan-stimulated murine peritoneal macrophages. It is filed as cell-based. The conditions noted are these: read-out: IC50, inhibition of prostaglandin E2 production.
Assay [3] concerns leukotriene C4 production in zymosan-stimulated murine peritoneal macrophages. The assay is described as follows: Leukotriene C4 production in zymosan-stimulated murine peritoneal macrophages. The conditions noted are these: read-out: IC50, inhibition of leukotriene C4 production. It is filed as cell-based.
Assay [4] deals with Tetrahymena thermophila. Nature of the assay: Tetrahymena thermophila phagocytic activity (India ink food vacuole formation). The assay is classed as cell-based. The conditions noted are these: read-out: IC50, inhibition of phagocytic activity. On the procedure:
In Tetrahymena thermophila, PsA and elisabethadione were potent inhibitors of phagocytic activity with IC50 of 0.4 and 0.1 μM, respectively. A test compound may be assayed as follows. Log-phase Tetrahymena thermophila cultures are grown in 2% proteose peptone, 0.1% glucose at 25° C. A volume comprising 1×10^7 cells are centrifuged at 450 g for 5 minutes. The pellet is washed and resuspended in 3.15 ml of 50 mM TRIS-HCl buffer at pH 7.7. The test compound is prepared at a desired concentration in 0.4 ml volumes. For control samples, 0.4 ml of buffer is used. 0.45 ml of diluted India ink (1:25, v:v) is added to each drug preparation. At t=0, the drug/ink mixture is added to the Tetrahymena cells, and at t=10 min., […] samples of cell suspension are removed and fixed in 10% formaldehyde. At least 100 random cells from each sample are then examined in a light microscope. Phagocytic activity is assessed by calculating the ratio of cells with food vacuoles compared to the cells with no food vacuoles.

For `CC(C)=C[C@H]1C[C@H](C)[C@H]2CC[C@H](C)c3c(O[C@@H]4OC[C@@H](O)[C@H](O)[C@H]4O)c(O)c(C)c1c32` [PsA, Pseudopterosin A], in assay [1], the “ED50, reducing PMA-induced mouse ear edema” value is listed as 8 μg/ear. For the same compound, the IC50 came out at 4000 nM in assay [2], 1000 nM in assay [3] and 400 nM in assay [4].

As for `CC(C)=C[C@H]1C[C@H](C)[C@H]2CC[C@H](C)c3c(O)c(O[C@@H]4O[C@@H](C)[C@@H](O)[C@@H](O)[C@@H]4O)c(C)c1c32` [PsE, Pseudopterosin E], the “ED50, reducing PMA-induced mouse ear edema” value in assay [1] is 38 μg/ear.

Turning to `CC(C)=CCC[C@H](C)[C@H]1CC[C@H](C)C2=C1C(=O)C(C)=C(O)C2=O` [elisabethadione], the IC50 in assay [4] is 100 nM.
